Source: patent US20030220396A1, “Method for treating ocular hypertension and glaucoma” (SUCAMPO AG, priority 2002, published 2003)

Experiments:
Type in all cases: in vivo
[1] = system: intraocular pressure (IOP); experiment: IOP lowering after instillation of ophthalmic solution in cynomolgus monkeys (Example 1); conditions: for ΔIOP · AUC0-24 h Mean ± S.E.: 0.001 w/v% solution, 30 μL/eye
Method: (§1) In the following examples, the osmolarity was measured by means of OSMOMETER (Model OM-801, VOGEL) at room temperature.
Two kinds of test ophthalmic solutions each containing 0.001 w/v% of test substance 1 (13,14-dihydro-15-keto-17-phenyl-18,19,20-trinor-PGF2αisopropyl ester), which is 15-keto-prostaglandin compound having a ring structure at the end of the ω chain were prepared. The osmolarity ratio of one solution was adjusted to 0.7 (osmolarity: 200 mOsm) and the other was adjusted to 1.0 (osmolarity: 286 mOsm). Nine cynomolgus monkeys were used for the example. One of the test solutions was instilled (30 μL/eye) into one eye of the monkey, and one week after, the other test solution was instilled (30 μL/eye) into the same eye.

[2] = system: intraocular pressure (IOP); experiment: IOP lowering after instillation of ophthalmic solution in cynomolgus monkeys (Example 2); conditions: for ΔIOP · AUC0-24 h Mean ± S.E.: 0.001 w/v% solution, 30 μL/eye, in mmHg·h (unit assumed)
Method: as §1
Three kinds of ophthalmic solutions each containing 0.001 w/v% of test substance 1 were prepared and used. The osmolarity ratio of the solutions were adjusted to 0.8 (osmolarity: 229 mOsm), 1.0 (osmolarity: 286 mOsm) and 1.3 (osmolarity: 372 mOsm) respectively. Eight cynomolgus monkeys were used for this example. Test solutions were instilled to the monkey in the same manner as Example 1, i.e. 30 μL/eye of each solution was serially instilled to same eye with one-week intervals between the instillations.

[3] = system: intraocular pressure (IOP); experiment: IOP lowering after instillation of ophthalmic solution in white rabbit (Comparative Example); conditions: for ΔIOP · AUC0-6 h Mean ± S.E.: 0.05 w/v% solution, 35 μL/eye, in mmHg·h (unit assumed)
Method: as §1
Three kinds of ophthalmic solutions each containing 0.05 w/v% of test substance 2 (13,14-dihydro-15-keto-20-ethyl-PGF2αisopropyl ester), which is a 15-keto-prostaglandin compound having a linear structure at the end of the ω chain, were prepared and used. The osmolarity ratio of the solutions were adjusted to 0.3 (osmolarity: 86 mOsm), 0.7 (osmolarity: 200 mOsm) and 1.0 (osmolarity: 286 mOsm), respectively. Each of the test solutions (35 μL/eye) was instilled serially into one eye of a white rabbit with one-week intervals between the installations.

[4] = osmolarity ratio 1.0 (286 mOsm)

## CC(C)OC(=O)CCC/C=C\C[C@@H]1[C@@H](CCC(=O)CCc2ccccc2)[C@H](O)C[C@@H]1O [Test Substance 1, 13,14-dihydro-15-keto-17-phenyl-18,19,20-trinor-PGF2αisopropyl ester]
[1]; osmolarity ratio 0.7 (200 mOsm), in mmHg·h (unit assumed)
  ΔIOP · AUC0-24 h Mean ± S.E.: 22.8 ± 11.8
[1]; osmolarity ratio 1.0 (286 mOsm), p < 0.05 vs ratio 0.7, in mmHg·h (unit assumed)
  ΔIOP · AUC0-24 h Mean ± S.E.: 55.1 ± 10.7
[1]; osmolarity ratio 1.0 compared with osmolarity ratio 0.7, 0.001 w/v%
  IOP lowering effect, comparison in words: significantly greater IOP lowering effect
[2]; osmolarity ratio 0.8 (229 mOsm)
  ΔIOP · AUC0-24 h Mean ± S.E.: 41.1 ± 18.7
[2]; [4]
  ΔIOP · AUC0-24 h Mean ± S.E.: 62.3 ± 19.3
[2]; osmolarity ratio 1.3 (372 mOsm)
  ΔIOP · AUC0-24 h Mean ± S.E.: 37.9 ± 14.8
[2]; osmolarity ratio 1.0 compared with osmolarity ratio 0.8 and 1.3, 0.001 w/v%
  IOP lowering effect, comparison in words: greater IOP lowering effect

## CCCCCCCC(=O)CC[C@@H]1[C@@H](C/C=C\CCCC(=O)OC(C)C)[C@@H](O)C[C@H]1O [Test Substance 2, 13,14-dihydro-15-keto-20-ethyl-PGF2αisopropyl ester]
[3]; osmolarity ratio 0.3 (86 mOsm)
  ΔIOP · AUC0-6 h Mean ± S.E.: 18.9 ± 4.4
[3]; osmolarity ratio 0.7 (200 mOsm)
  ΔIOP · AUC0-6 h Mean ± S.E.: 22.5 ± 5.1
[3]; [4]
  ΔIOP · AUC0-6 h Mean ± S.E.: 20.3 ± 4.6
[3]; osmolarity ratio 0.3, 0.7 and 1.0 compared, 0.05 w/v%
  IOP lowering effect, comparison in words: substantially the same IOP lowering effect
